Read-outs that look alike come from different tables or passages of the source.
Experiments:
[1] = molecular target: T1, complexes formed by Nanchung and Water witch proteins (Wtrw + Nan) (Drosophila melanogaster, UniProt Q9VHY7+Q9VUD5); assay: Calcium mobilization (fluo-4AM, FLIPR-TETRA) in CHO-K1 cells co-expressing Water witch and Nanchung; format: cell-based
T1 construct: adenoviral co-expression in CHO-K1 cells, fluo-4 calcium FLIPR
T1 sequence (Q9VUD5 1-833): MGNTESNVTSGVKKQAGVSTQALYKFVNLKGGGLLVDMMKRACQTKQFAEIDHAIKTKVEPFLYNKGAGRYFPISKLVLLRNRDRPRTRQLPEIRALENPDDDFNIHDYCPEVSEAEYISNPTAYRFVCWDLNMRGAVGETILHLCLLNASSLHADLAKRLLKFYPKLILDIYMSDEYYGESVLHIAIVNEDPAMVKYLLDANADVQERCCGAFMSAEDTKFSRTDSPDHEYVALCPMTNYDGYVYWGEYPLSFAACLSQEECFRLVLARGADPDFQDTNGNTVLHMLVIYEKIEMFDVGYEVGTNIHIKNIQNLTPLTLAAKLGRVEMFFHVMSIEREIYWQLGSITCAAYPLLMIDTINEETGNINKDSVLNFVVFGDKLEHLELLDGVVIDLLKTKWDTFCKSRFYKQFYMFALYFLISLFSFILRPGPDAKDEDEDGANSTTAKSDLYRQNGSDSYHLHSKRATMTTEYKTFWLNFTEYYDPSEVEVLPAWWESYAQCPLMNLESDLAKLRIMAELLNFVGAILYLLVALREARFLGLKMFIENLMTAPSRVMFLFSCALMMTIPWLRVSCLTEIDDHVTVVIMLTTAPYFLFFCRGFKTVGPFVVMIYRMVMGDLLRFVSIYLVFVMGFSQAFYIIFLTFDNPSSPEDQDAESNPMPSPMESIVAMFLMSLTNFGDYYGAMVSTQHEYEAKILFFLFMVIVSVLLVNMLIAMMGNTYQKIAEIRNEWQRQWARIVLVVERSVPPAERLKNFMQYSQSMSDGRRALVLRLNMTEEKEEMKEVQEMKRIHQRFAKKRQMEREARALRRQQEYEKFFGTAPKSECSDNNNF
T1 sequence (Q9VHY7 1-986): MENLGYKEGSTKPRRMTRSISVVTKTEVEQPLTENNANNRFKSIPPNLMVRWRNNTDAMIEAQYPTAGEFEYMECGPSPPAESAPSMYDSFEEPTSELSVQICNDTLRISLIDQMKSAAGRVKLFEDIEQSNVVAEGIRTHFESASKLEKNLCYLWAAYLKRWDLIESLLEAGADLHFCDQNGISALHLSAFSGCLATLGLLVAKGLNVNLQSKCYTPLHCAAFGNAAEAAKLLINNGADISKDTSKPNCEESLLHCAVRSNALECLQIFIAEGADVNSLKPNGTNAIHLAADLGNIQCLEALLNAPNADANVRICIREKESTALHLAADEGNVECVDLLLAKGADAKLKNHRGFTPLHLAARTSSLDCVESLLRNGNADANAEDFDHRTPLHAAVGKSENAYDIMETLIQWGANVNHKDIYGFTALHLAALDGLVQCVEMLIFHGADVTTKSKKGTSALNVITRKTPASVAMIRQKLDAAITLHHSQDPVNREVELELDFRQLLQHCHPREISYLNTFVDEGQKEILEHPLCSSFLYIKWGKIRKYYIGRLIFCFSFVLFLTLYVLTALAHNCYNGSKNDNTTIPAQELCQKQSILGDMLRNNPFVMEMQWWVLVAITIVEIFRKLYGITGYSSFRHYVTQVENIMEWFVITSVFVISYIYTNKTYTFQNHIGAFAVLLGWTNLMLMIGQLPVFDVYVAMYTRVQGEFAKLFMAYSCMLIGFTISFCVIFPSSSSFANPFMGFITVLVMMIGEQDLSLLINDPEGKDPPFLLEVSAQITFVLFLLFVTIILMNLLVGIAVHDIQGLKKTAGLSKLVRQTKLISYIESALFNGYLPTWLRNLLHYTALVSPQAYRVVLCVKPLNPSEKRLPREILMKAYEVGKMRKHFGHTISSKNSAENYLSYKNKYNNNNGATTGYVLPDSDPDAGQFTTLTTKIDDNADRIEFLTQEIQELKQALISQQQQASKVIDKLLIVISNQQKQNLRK

[2] = molecular target: T2, complexes formed by Nanchung protein and Inactive protein (Nan + Iav) (Drosophila melanogaster, UniProt Q9VUD5+Q9W3W0); assay: Competition binding with [3H]-afidopyropen to membranes from CHO-K1 cells co-expressing Nanchung and Inactive; conditions: FIG. 6, [3H]-afidopyropen displacement, Nan (SEQ ID NO 7) C-terminal HA/mCherry, Iav (NP_572353) C-terminal FLAG/AcGFP, pH 7.4, 3 h room temperature, Cheng-Prusoff, read-out: Nan + Iav (Nanchung:Inactive complex) Ki
T2 construct: full-length Iav C-terminally fused to FLAG tags and AcGFP; adenoviral co-expression in CHO-K1, membranes; [3H]-afidopyropen tracer
T2 sequence (Q9VUD5 1-833): T1 sequence (Q9VUD5 1-833)
T2 sequence (Q9W3W0 1-1123): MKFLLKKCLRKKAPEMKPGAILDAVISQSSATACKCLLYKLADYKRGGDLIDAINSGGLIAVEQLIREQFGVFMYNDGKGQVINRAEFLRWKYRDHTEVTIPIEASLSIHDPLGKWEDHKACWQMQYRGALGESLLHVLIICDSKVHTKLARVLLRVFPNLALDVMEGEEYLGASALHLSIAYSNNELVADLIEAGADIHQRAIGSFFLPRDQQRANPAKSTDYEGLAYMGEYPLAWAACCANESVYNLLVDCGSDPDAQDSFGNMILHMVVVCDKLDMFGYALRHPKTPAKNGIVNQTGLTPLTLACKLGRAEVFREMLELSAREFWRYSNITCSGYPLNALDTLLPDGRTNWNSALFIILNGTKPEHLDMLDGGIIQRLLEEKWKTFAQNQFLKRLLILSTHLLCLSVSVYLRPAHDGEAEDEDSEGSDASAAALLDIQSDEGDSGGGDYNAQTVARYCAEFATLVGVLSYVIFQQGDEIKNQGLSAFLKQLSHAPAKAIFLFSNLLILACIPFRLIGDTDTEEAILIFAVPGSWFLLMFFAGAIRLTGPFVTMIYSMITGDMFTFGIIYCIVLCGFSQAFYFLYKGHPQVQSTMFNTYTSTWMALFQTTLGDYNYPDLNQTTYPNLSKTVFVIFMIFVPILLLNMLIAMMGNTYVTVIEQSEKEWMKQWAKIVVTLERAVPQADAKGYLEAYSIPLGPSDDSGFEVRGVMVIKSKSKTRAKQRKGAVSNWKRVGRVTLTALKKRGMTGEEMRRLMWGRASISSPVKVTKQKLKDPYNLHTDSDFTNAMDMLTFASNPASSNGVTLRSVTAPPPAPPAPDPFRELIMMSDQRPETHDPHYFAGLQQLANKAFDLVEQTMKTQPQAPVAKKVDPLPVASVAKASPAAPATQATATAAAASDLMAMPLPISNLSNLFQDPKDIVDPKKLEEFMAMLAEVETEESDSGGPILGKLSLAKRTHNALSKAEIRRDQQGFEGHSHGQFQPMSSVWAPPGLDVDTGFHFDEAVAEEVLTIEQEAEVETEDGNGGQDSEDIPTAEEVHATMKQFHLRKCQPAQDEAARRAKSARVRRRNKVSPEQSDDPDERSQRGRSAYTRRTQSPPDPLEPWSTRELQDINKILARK

[3] = molecular target: T3, complexes formed by Nanchung protein and Water witch protein (Nan + Wtrw) (Drosophila melanogaster, UniProt Q9VHY7+Q9VUD5); assay: Competition binding with [3H]-afidopyropen to membranes from CHO-K1 cells co-expressing Nanchung and Water witch; conditions: FIG. 6, [3H]-afidopyropen displacement, Nan (SEQ ID NO 7) C-terminal HA/mCherry, Wtrw (SEQ ID NO 63) C-terminal FLAG/AcGFP, pH 7.4, 3 h room temperature, Cheng-Prusoff, read-out: Nan + Wtrw (Nanchung:Water witch complex) Ki
T3 construct: adenoviral co-expression in CHO-K1, membranes; [3H]-afidopyropen tracer
T3 sequence (Q9VUD5 1-833): T1 sequence (Q9VUD5 1-833)
T3 sequence (Q9VHY7 1-986): T1 sequence (Q9VHY7 1-986)

[4] = molecular target: Nanchung (Nan) protein alone (Drosophila melanogaster, UniProt A0ACM8PYI9); assay: [3H]-afidopyropen saturation binding to membranes of CHO-K1 cells expressing Nanchung alone; conditions: membranes from CHO-K1 cells expressing Nanchung individually; read-out: Kd, specific binding of tritium-labeled afidopyropen
[5] = molecular target: complexes formed by Nanchung protein and Water witch protein (Nan + Wtrw) (Drosophila melanogaster, UniProt A0ACM8PYI9); assay: biochemical; format: binding
[6] = test system: Water witch (Wtrw) protein alone; assay: [3H]-afidopyropen saturation binding to membranes expressing Water witch alone; parameters: species or system Drosophila melanogaster
Nanchung (Nan) = conditions: previously shown; cited from earlier work
[7] = test system: Nanchung and Water witch (Nan + Wtrw) complexes; assay: Calcium mobilization (fluo-4, FLIPR) in CHO-K1 cells co-expressing Nanchung and Water witch; conditions: CHO-K1 cells co-expressing Nanchung and Water witch
Description: DNAs encoding for tagged TRP channels were delivered into CHO-K1 cells using adenoviruses. Adenovirus-mediated gene delivery allowed for expression of the gene of interest, optimize expression levels and stoichiometry of subunits, as well as prevention of possible toxic effects of insect TRP channels by maintaining virus-infected cells at room temperature.
To test the hypothesis that Water witch may also be involved in the action of PM and AP, Water witch was expressed in CHO-K1 cells either alone or in combination with Nanchung. Given that TRP channels are permeable for Ca2+, cell responces were measured by monitoring Ca2+ mobilization using Ca2+ sensitive fluorescent probe FLUO4.
Hamster CHO-K1 cells (ATCC ® CCL-61TM) were infected with adenoviruses expressing TRP channels individually or in combinations. The cells were kept overnight at 37° C., followed by 3 days at 25° C. The medium was changed two days after seeding. Calcium mobilization was detected using fluorescent calcium probe fluo-4AM (Life Technologies) and measured by FLIPR-TETRA instrument (Molecular Devices, Sunnyvale, CA). The cells were loaded with 50 µl of Hank’s buffered salt solution (HBSS) containing 4 µM fluo-4AM, 5 mM probenecid, 20 mM CaCl2, and 0.02% pluoronic for 2 hours at 25° C. The dye was then discarded, 50 µl of HBSS were added. The test compounds were dissolved in DMSO and added to the cells in 50 µl HBSS, yielding a final DMSO concentration of 0.2%. Fluorescence was monitored for 10 minutes at 1 second intervals at 470-495 nm/515-575 nm excitation/emission wavelengths. EC50 values were calculated using GraphPad Prism (GraphPad Software).

[8] = molecular target: T4, Drosophila melanogaster Water witch fused at its carboxyl terminus with FLAG tags and AcGFP fluorescent … (Drosophila melanogaster); assay: co-immunoprecipitation from lysates of adenovirus-transduced CHO-K1 cells; anti-FLAG M2 affinity gel, Western blot with anti-HA
T4 construct: TRPA channel subunit expressed in hamster CHO-K1 cells by adenovirus; also called Wtrw-FLAG; FLAG-tagged Water witch; not shown: FLAG tags and AcGFP fused in-frame at the carboxyl terminus
T4 chain: T1 sequence (Q9VHY7 1-986)

Molecule `C[C@]1(COC(=O)C2CC2)[C@@H]2C[C@H](O)[C@@]3(C)Oc4cc(-c5cccnc5)oc(=O)c4[C@H](O)[C@@H]3[C@@]2(C)CC[C@@H]1OC(=O)C1CC1` [AP, afidopyropen] has an EC50 ([1]; FIG. 2B, hamster CHO-K1 cells, adenovirus, Wtrw (SEQ ID NO 63) C-terminal FLAG/AcGFP, Nan (SEQ ID NO 7) C-terminal HA/mCherry, fluo-4AM, 20 mM CaCl2, 0.2% DMSO, 10 min, read-out: Wtrw + Nan (Water witch:Nanchung complex) EC50 (calcium response)) of 39 nM.

Molecule `CC1=NNC(=O)N(/N=C/c2cccnc2)C1` [Pymetrozine, pymetrozine] has an EC50 [1] of 96 nM, a Ki [2] of 43 nM and a Ki [3] of 102 nM.

With `C[C@]1(COC(=O)C2CC2)[C@@H]2C[C@H](O)[C@@]3(C)Oc4cc(-c5cccnc5)oc(=O)c4[C@H](O)[C@@H]3[C@@]2(C)CC[C@@H]1OC(=O)C1CC1` [afidopyropen] the Kd [4] was 4.5 nM, the Kd [5] was 0.048 nM and the “Binding of tritiated afidopyropen” value [6] was “negligible”. For the same molecule, the “Response of Nanchung alone to stimulation” value (Nanchung (Nan)) was “does not respond” and the “Ca2+ mobilization response” value [7] was “elicited calcium mobilization”.

B1: Drosophila melanogaster Nanchung fused at its carboxyl terminus with HA tags and mCherry fluorescent protein (other)
chain: T1 sequence (Q9VUD5 1-833)
notes: TRPV channel subunit expressed in hamster CHO-K1 cells by adenovirus; For the co-immunoprecipitation the cells were lysed in Triton X-100 buffer; also called Nan-HA; HA-tagged Nanchung; not shown: HA tags and mCherry fused in-frame at the carboxyl terminus
B1: binds [8].
